Among the data in PubChem BioAssay AID1963837 (Molecular Pharmacology Branch, DTP, NCI, 2024) are viability, T/C values, retold here.

For orientation: viability, T/C means the result in the treated group divided by that in the control group, in per cent.

Molecules are shown by their SMILES.
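Further: spheroids exposed to drugs for seven days before readout.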

The first assay deals with 843126-344-R-J1-PDC complex spheroid viability. The assay can be described thus: Anticancer human tumor 843126-344-R-J1-PDC patient-derived melanoma cell line growth inhibition [POLQ]. To be noted: second compound 0.0316 µM; first compound 3.16 µM; hits give low values. The gist of the method:
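Three-cell-type spheroids modelling solid tumor plus stroma served as the readout system; POL inhibitors were tested individually and in combination, concentration ranges set by clinical Cmax where known.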
For `CCc1cc2c(N3CCc4c(cc(Cn5ccnc5)cc4-c4cn(C)nc4C(F)(F)F)C3=O)ccnc2c(OC)n1` + Cc1cccc(N(C)C(=O)C2C(O)CCN2c2nc(C)cc(C(F)(F)F)c2C#N)c1, the viability, T/C was 69.9%.

With `COc1cc2cc(C(=O)CCC(=O)O)sc2cc1OC` + Cc1cccc(N(C)C(=O)C2C(O)CCN2c2nc(C)cc(C(F)(F)F)c2C#N)c1, the viability, T/C was 96.4%.

The assay is the same for the next values; noted with them: second compound 0.0316 µM; first compound 10 µM; hits give low values.
Turning to `C=CC(=O)N1CCN(c2nc(=O)n(-c3c(C)ccnc3C(C)C)c3nc(-c4c(O)cccc4F)c(F)cc23)C(C)C1` (configuration not stated) + Cc1cccc(N(C)C(=O)C2C(O)CCN2c2nc(C)cc(C(F)(F)F)c2C#N)c1, the viability, T/C was 78.6%.

Regarding `CCc1cc2c(N3CCc4c(cc(Cn5ccnc5)cc4-c4cn(C)nc4C(F)(F)F)C3=O)cc(C)nc2c(OC)n1` + Cc1cccc(N(C)C(=O)C2C(O)CCN2c2nc(C)cc(C(F)(F)F)c2C#N)c1, the viability, T/C was 61.9%.

For `CCc1cc2c(N3CCc4c(cc(Cn5ccnc5)cc4-c4cn(C)nc4C(F)(F)F)C3=O)ccnc2c(OC)n1` + Cc1cccc(N(C)C(=O)C2C(O)CCN2c2nc(C)cc(C(F)(F)F)c2C#N)c1, the viability, T/C was 61.4%.

Consider `COc1cc2cc(C(=O)CCC(=O)O)sc2cc1OC` + Cc1cccc(N(C)C(=O)C2C(O)CCN2c2nc(C)cc(C(F)(F)F)c2C#N)c1, for which the viability, T/C is 92.4%.

Still in this assay, the particulars now being: second compound 0.1 µM; first compound 0.0316 µM; hits give low values.
Take `C=CC(=O)N1CCN(c2nc(=O)n(-c3c(C)ccnc3C(C)C)c3nc(-c4c(O)cccc4F)c(F)cc23)C(C)C1` (configuration not stated) + Cc1cccc(N(C)C(=O)C2C(O)CCN2c2nc(C)cc(C(F)(F)F)c2C#N)c1: the viability, T/C is 81.8%.

As to `CCc1cc2c(N3CCc4c(cc(Cn5ccnc5)cc4-c4cn(C)nc4C(F)(F)F)C3=O)cc(C)nc2c(OC)n1` + Cc1cccc(N(C)C(=O)C2C(O)CCN2c2nc(C)cc(C(F)(F)F)c2C#N)c1, the viability, T/C is 99%.

Consider `CCc1cc2c(N3CCc4c(cc(Cn5ccnc5)cc4-c4cn(C)nc4C(F)(F)F)C3=O)ccnc2c(OC)n1` + Cc1cccc(N(C)C(=O)C2C(O)CCN2c2nc(C)cc(C(F)(F)F)c2C#N)c1, for which the viability, T/C was 90%.

For the molecule `COc1cc2cc(C(=O)CCC(=O)O)sc2cc1OC` + Cc1cccc(N(C)C(=O)C2C(O)CCN2c2nc(C)cc(C(F)(F)F)c2C#N)c1, the viability, T/C was 91.1%.

Staying with this assay, now noted: second compound 0.1 µM; first compound 0.1 µM; hits give low values.
As to `C=CC(=O)N1CCN(c2nc(=O)n(-c3c(C)ccnc3C(C)C)c3nc(-c4c(O)cccc4F)c(F)cc23)C(C)C1` (configuration not stated) + Cc1cccc(N(C)C(=O)C2C(O)CCN2c2nc(C)cc(C(F)(F)F)c2C#N)c1, the viability, T/C was 81.3%.

With `CCc1cc2c(N3CCc4c(cc(Cn5ccnc5)cc4-c4cn(C)nc4C(F)(F)F)C3=O)cc(C)nc2c(OC)n1` + Cc1cccc(N(C)C(=O)C2C(O)CCN2c2nc(C)cc(C(F)(F)F)c2C#N)c1, the viability, T/C is 88.5%.

For the molecule `CCc1cc2c(N3CCc4c(cc(Cn5ccnc5)cc4-c4cn(C)nc4C(F)(F)F)C3=O)ccnc2c(OC)n1` + Cc1cccc(N(C)C(=O)C2C(O)CCN2c2nc(C)cc(C(F)(F)F)c2C#N)c1, the viability, T/C was 88.4%.

Turning to `COc1cc2cc(C(=O)CCC(=O)O)sc2cc1OC` + Cc1cccc(N(C)C(=O)C2C(O)CCN2c2nc(C)cc(C(F)(F)F)c2C#N)c1, the viability, T/C is 91.4%.

The same assay, now with this note: second compound 0.1 µM; first compound 0.316 µM; hits give low values.
In the case of `C=CC(=O)N1CCN(c2nc(=O)n(-c3c(C)ccnc3C(C)C)c3nc(-c4c(O)cccc4F)c(F)cc23)C(C)C1` (configuration not stated) + Cc1cccc(N(C)C(=O)C2C(O)CCN2c2nc(C)cc(C(F)(F)F)c2C#N)c1, the viability, T/C is 94.7%.

On to `CCc1cc2c(N3CCc4c(cc(Cn5ccnc5)cc4-c4cn(C)nc4C(F)(F)F)C3=O)cc(C)nc2c(OC)n1` + Cc1cccc(N(C)C(=O)C2C(O)CCN2c2nc(C)cc(C(F)(F)F)c2C#N)c1, for which the viability, T/C is 79%.

For the molecule `CCc1cc2c(N3CCc4c(cc(Cn5ccnc5)cc4-c4cn(C)nc4C(F)(F)F)C3=O)ccnc2c(OC)n1` + Cc1cccc(N(C)C(=O)C2C(O)CCN2c2nc(C)cc(C(F)(F)F)c2C#N)c1, the viability, T/C was 87.1%.

For the molecule `COc1cc2cc(C(=O)CCC(=O)O)sc2cc1OC` + Cc1cccc(N(C)C(=O)C2C(O)CCN2c2nc(C)cc(C(F)(F)F)c2C#N)c1, the viability, T/C was 84.9%.

Still in this assay, the particulars now being: second compound 0.1 µM; first compound 1 µM; hits give low values.
With `C=CC(=O)N1CCN(c2nc(=O)n(-c3c(C)ccnc3C(C)C)c3nc(-c4c(O)cccc4F)c(F)cc23)C(C)C1` (configuration not stated) + Cc1cccc(N(C)C(=O)C2C(O)CCN2c2nc(C)cc(C(F)(F)F)c2C#N)c1, the viability, T/C was 97%.

Regarding `CCc1cc2c(N3CCc4c(cc(Cn5ccnc5)cc4-c4cn(C)nc4C(F)(F)F)C3=O)cc(C)nc2c(OC)n1` + Cc1cccc(N(C)C(=O)C2C(O)CCN2c2nc(C)cc(C(F)(F)F)c2C#N)c1, the viability, T/C was 79.9%.

On to `CCc1cc2c(N3CCc4c(cc(Cn5ccnc5)cc4-c4cn(C)nc4C(F)(F)F)C3=O)ccnc2c(OC)n1` + Cc1cccc(N(C)C(=O)C2C(O)CCN2c2nc(C)cc(C(F)(F)F)c2C#N)c1, for which the viability, T/C was 90%.

As for `COc1cc2cc(C(=O)CCC(=O)O)sc2cc1OC` + Cc1cccc(N(C)C(=O)C2C(O)CCN2c2nc(C)cc(C(F)(F)F)c2C#N)c1, the viability, T/C is 83.7%.

Still in this assay, the particulars now being: second compound 0.1 µM; first compound 3.16 µM; hits give low values.
Turning to `C=CC(=O)N1CCN(c2nc(=O)n(-c3c(C)ccnc3C(C)C)c3nc(-c4c(O)cccc4F)c(F)cc23)C(C)C1` (configuration not stated) + Cc1cccc(N(C)C(=O)C2C(O)CCN2c2nc(C)cc(C(F)(F)F)c2C#N)c1, the viability, T/C was 80.7%.

As for `CCc1cc2c(N3CCc4c(cc(Cn5ccnc5)cc4-c4cn(C)nc4C(F)(F)F)C3=O)cc(C)nc2c(OC)n1` + Cc1cccc(N(C)C(=O)C2C(O)CCN2c2nc(C)cc(C(F)(F)F)c2C#N)c1, the viability, T/C was 71.5%.

With `CCc1cc2c(N3CCc4c(cc(Cn5ccnc5)cc4-c4cn(C)nc4C(F)(F)F)C3=O)ccnc2c(OC)n1` + Cc1cccc(N(C)C(=O)C2C(O)CCN2c2nc(C)cc(C(F)(F)F)c2C#N)c1, the viability, T/C was 72.3%.

With `COc1cc2cc(C(=O)CCC(=O)O)sc2cc1OC` + Cc1cccc(N(C)C(=O)C2C(O)CCN2c2nc(C)cc(C(F)(F)F)c2C#N)c1, the viability, T/C was 94.4%.

The same assay, now with this note: second compound 0.1 µM; first compound 10 µM; hits give low values.
As for `C=CC(=O)N1CCN(c2nc(=O)n(-c3c(C)ccnc3C(C)C)c3nc(-c4c(O)cccc4F)c(F)cc23)C(C)C1` (configuration not stated) + Cc1cccc(N(C)C(=O)C2C(O)CCN2c2nc(C)cc(C(F)(F)F)c2C#N)c1, the viability, T/C is 80.7%.

For the molecule `CCc1cc2c(N3CCc4c(cc(Cn5ccnc5)cc4-c4cn(C)nc4C(F)(F)F)C3=O)cc(C)nc2c(OC)n1` + Cc1cccc(N(C)C(=O)C2C(O)CCN2c2nc(C)cc(C(F)(F)F)c2C#N)c1, the viability, T/C was 64.1%.

As to `CCc1cc2c(N3CCc4c(cc(Cn5ccnc5)cc4-c4cn(C)nc4C(F)(F)F)C3=O)ccnc2c(OC)n1` + Cc1cccc(N(C)C(=O)C2C(O)CCN2c2nc(C)cc(C(F)(F)F)c2C#N)c1, the viability, T/C was 60.4%.

On to `COc1cc2cc(C(=O)CCC(=O)O)sc2cc1OC` + Cc1cccc(N(C)C(=O)C2C(O)CCN2c2nc(C)cc(C(F)(F)F)c2C#N)c1, for which the viability, T/C was 85.2%.

Staying with this assay, now noted: second compound 0.316 µM; first compound 0.0316 µM; hits give low values.
As for `C=CC(=O)N1CCN(c2nc(=O)n(-c3c(C)ccnc3C(C)C)c3nc(-c4c(O)cccc4F)c(F)cc23)C(C)C1` (configuration not stated) + Cc1cccc(N(C)C(=O)C2C(O)CCN2c2nc(C)cc(C(F)(F)F)c2C#N)c1, the viability, T/C is 81.3%.

As for `CCc1cc2c(N3CCc4c(cc(Cn5ccnc5)cc4-c4cn(C)nc4C(F)(F)F)C3=O)cc(C)nc2c(OC)n1` + Cc1cccc(N(C)C(=O)C2C(O)CCN2c2nc(C)cc(C(F)(F)F)c2C#N)c1, the viability, T/C is 94.3%.

For the molecule `CCc1cc2c(N3CCc4c(cc(Cn5ccnc5)cc4-c4cn(C)nc4C(F)(F)F)C3=O)ccnc2c(OC)n1` + Cc1cccc(N(C)C(=O)C2C(O)CCN2c2nc(C)cc(C(F)(F)F)c2C#N)c1, the viability, T/C was 99.6%.

In the case of `COc1cc2cc(C(=O)CCC(=O)O)sc2cc1OC` + Cc1cccc(N(C)C(=O)C2C(O)CCN2c2nc(C)cc(C(F)(F)F)c2C#N)c1, the viability, T/C is 97.2%.

The assay is the same for the next values; noted with them: second compound 0.316 µM; first compound 0.1 µM; hits give low values.
`C=CC(=O)N1CCN(c2nc(=O)n(-c3c(C)ccnc3C(C)C)c3nc(-c4c(O)cccc4F)c(F)cc23)C(C)C1` (configuration not stated) + Cc1cccc(N(C)C(=O)C2C(O)CCN2c2nc(C)cc(C(F)(F)F)c2C#N)c1: the viability, T/C was 85.6%.

Consider `CCc1cc2c(N3CCc4c(cc(Cn5ccnc5)cc4-c4cn(C)nc4C(F)(F)F)C3=O)cc(C)nc2c(OC)n1` + Cc1cccc(N(C)C(=O)C2C(O)CCN2c2nc(C)cc(C(F)(F)F)c2C#N)c1, for which the viability, T/C was 93.2%.

Regarding `CCc1cc2c(N3CCc4c(cc(Cn5ccnc5)cc4-c4cn(C)nc4C(F)(F)F)C3=O)ccnc2c(OC)n1` + Cc1cccc(N(C)C(=O)C2C(O)CCN2c2nc(C)cc(C(F)(F)F)c2C#N)c1, the viability, T/C was 74.9%.

With `COc1cc2cc(C(=O)CCC(=O)O)sc2cc1OC` + Cc1cccc(N(C)C(=O)C2C(O)CCN2c2nc(C)cc(C(F)(F)F)c2C#N)c1, the viability, T/C is 92.4%.

The assay is the same for the next values; noted with them: second compound 0.316 µM; first compound 0.316 µM; hits give low values.
As for `C=CC(=O)N1CCN(c2nc(=O)n(-c3c(C)ccnc3C(C)C)c3nc(-c4c(O)cccc4F)c(F)cc23)C(C)C1` (configuration not stated) + Cc1cccc(N(C)C(=O)C2C(O)CCN2c2nc(C)cc(C(F)(F)F)c2C#N)c1, the viability, T/C is 91.1%.

With `CCc1cc2c(N3CCc4c(cc(Cn5ccnc5)cc4-c4cn(C)nc4C(F)(F)F)C3=O)cc(C)nc2c(OC)n1` + Cc1cccc(N(C)C(=O)C2C(O)CCN2c2nc(C)cc(C(F)(F)F)c2C#N)c1, the viability, T/C is 82.4%.

For the molecule `CCc1cc2c(N3CCc4c(cc(Cn5ccnc5)cc4-c4cn(C)nc4C(F)(F)F)C3=O)ccnc2c(OC)n1` + Cc1cccc(N(C)C(=O)C2C(O)CCN2c2nc(C)cc(C(F)(F)F)c2C#N)c1, the viability, T/C was 86%.

`COc1cc2cc(C(=O)CCC(=O)O)sc2cc1OC` + Cc1cccc(N(C)C(=O)C2C(O)CCN2c2nc(C)cc(C(F)(F)F)c2C#N)c1: the viability, T/C was 90.1%.
